# Measurements published in patent US20050244481A1, “Personal care products and methods for inhibiting the adherence of flora to skin” (Kimberly-Clark Worldwide, Inc., priority 2004, published 2005).
# Experiments:
# Format in all cases: cell-based
# Pseudomonas aeruginosa [1] = experiment: Inhibition of P. aeruginosa attachment to VITRO-SKIN synthetic skin substrate (Example 2, AlamarBlue); conditions: for % Attached as Compared to PBS Treatment: 3 h, RFU at 60 min, n = 3
# Description: (§1) Two days prior to the test a bacterial culture was started by inoculating 10 ml of Luria-Bertani (LB) medium with one frozen bead containing Pseudomonas aeruginosa (Dr. G. O'Toole, Dept. Microbiol. Dartmouth Medical School, Hanover, N.H.), and incubating the culture overnight at 37° C. with agitation at 125 rpm.
# (§2) One day prior to the test a 100 ml LB culture was inoculated with 100 μl of the overnight culture and grown overnight at 37° C. with agitation at 125 rpm.
# (§3) The day of the test the optical density (OD) of the overnight culture was measured at 650 nm using a Spectramax spectrophotometer (Molecular Devices, Sunnyvale, Calif.). The culture was centrifuged at 4,500×g for 10 minutes at 4° C. to pellet the bacteria. The bacteria were resuspended in phosphate buffered saline (PBS) to give a concentration of 2×10^10 cells/ml (1 OD equals 1×10^9 cells/ml). […]
# (§4) The tissues were treated with 50 μl of inulin, Tween 20 alone, or PBS alone followed immediately by 50 μl of either the bacteria cells or PBS. […] AlamarBlue™ conversion was monitored kinetically in a microfluorometer (Fluoroskan Ascent, Thermo-Labsystems, Beverly, Mass.) for 60 minutes at 37° C., with an excitation of 544 nm and emission of 590 nm.
# (§5) Results are expressed as percent bacteria adhered to the tissue relative to the PBS control. The percentage is based on the number of cells that adhered to the skin in the inulin-containing (or Tween 20-containing control) samples as compared to the number of cells that adhered to the skin in the PBS control (i.e. PBS plus bacteria cells), as determined by the AlamarBlue® levels (RFU) at 60 minutes. The percent adherence was calculated by the formula: (RFU of the sample−RFU of appropriate background control)/(average of the RFU of the PBS treatment−average RFU of PBS background control)*100.
# (§6) The results for the three wells comprising each dilution were averaged, and the percent attached as compared to the PBS control treatment was calculated.
# [2] = tested on: Pseudomonas aeruginosa (ATCC # 27853); experiment: Inhibition of P. aeruginosa attachment to VITRO-SKIN synthetic skin substrate (Example 1, AlamarBlue); conditions: 3 h, RFU at 120 min, n = 5
# Description: Two days prior to the test a bacterial culture was started by inoculating 10 ml Luria-Bertani (LB) (Sigma-Aldrich, St. Louis, Mo.) with one frozen bead of Pseudomonas aeruginosa (ATCC # 27853), and incubating the culture overnight at 37° C. with agitation at 125 rpm.
# One day prior to the test a 100 ml LB culture was inoculated with 100 μl of the overnight culture and grown overnight at 37° C. with agitation at 125 rpm. VITRO-SKIN® synthetic skin substrate (N19, IMS, Milford, Conn.) was cut with a #2 size boring tool and placed into the wells of a 96 well tissue culture plate (Costar #3596, Corning Inc., Corning, NY). The plates were kept in a humidity chamber overnight until use to prevent dehydration of the tissues.
# The day of the test, the optical density at 650 nm (OD) of the overnight culture was measured using a Spectramax spectrophotometer (Molecular Devices, Sunnyvale, Calif.). The culture was centrifuged at 4,500×g for 10 minutes at 4° C. (J-251 centrifuge, Beckman, Fullerton, Calif.) to pellet the bacteria. The bacteria were resuspended in phosphate buffered saline (PBS) to give a concentration of 2×10^10 cells/ml (1 OD equals 1×10^9 cells/ml).
# A 20% (w/v) solution of each inulin source (Chicory root, Dahlia tuber from Sigma-Aldrich, St. Louis, Mo.) was prepared by mixing 0.3 g inulin with PBS (Invitrogen, Carlsbad, Calif.) to a final volume of 1.5 ml. Tween 20 (Sigma-Aldrich, St. Louis, Mo.) was included as a positive control, and a 4% (v/v) stock was prepared by mixing 40 μl of Tween 20 to 960 μl PBS. The Tween 20 stock was diluted to prepare a 2% (v/v) solution of Tween 20 by mixing 800 μl of the 4% solution and 800 μl of PBS. A two fold dilution series was prepared for each inulin source as follows: • 10%: 800 μl of the 20% solution plus 800 μl of PBS • 5%: 800 μl of the 10% solution plus 800 μl of PBS • 2.5%: 800 μl of the 5% solution plus 800 μl of PBS • 1.25% 800 μl of the 2.5% solution plus 800 μl of PBS.
# All tests were run five times (n=5).
# For the applied dose, 50 μl of each inulin dilution, Tween 20 alone, or PBS alone was added to the VITRO-SKIN® discs followed immediately by 50 μl of either the bacteria cells or PBS. Samples containing 50 μl inulin dilutions and 50 μl PBS served as a background controls for the inulin samples. Samples containing 50 μl Tween 20 and 50 μl PBS served as background controls for the Tween 20 samples. Background controls for the PBS were 100 μl PBS. The plates were gently shaken at room temperature for three hours. The tissues were washed three times with 250 μl of PBS, and transferred to an opaque white 96 well plate (Costar # 3922). 200 μl of AlamarBlue™ (Trek Diagnostic Systems, Cleveland, Ohio) in LB (20 μl AlamarBlue™+180 μl LB per well) was added to each well. AlamarBlue™ conversion was monitored every 15 minutes in a microfluorometer (Fluoroskan Ascent, Thermo-Labsystems, Beverly, Mass.) for 120 minutes with an excitation of 544 nm and emission of 590 nm. In between readings the plates were covered and incubated at 37° C.
# as §5, with “(relative fluorescence units (RFU))” for “(RFU)”, “120” for “60”
# The results for the five wells for each dilution step were averaged, and the percent attached as compared to the PBS control treatment was calculated.
# Pseudomonas aeruginosa [3] = experiment: Inhibition of P. aeruginosa attachment to porcine skin (Example 2, AlamarBlue); conditions: for % Attached as Compared to PBS Treatment: 3 h, RFU at 60 min, n = 3
# Description: as §1, §2, §3, §4, §5, §6
# Pseudomonas aeruginosa [4] = experiment: Inhibition of P. aeruginosa attachment to EpiDerm skin culture (Example 3); conditions: for % Attached as Compared to PBS Treatment: 37° C., 3 h, n = 2
# Description: The EpiDerm™ (MatTek, Ashland, Mass.) experiment was performed as outlined by the protocol supplied by the manufacturer for the EPI-200 EpiDerm™.
# Two days prior to the test bacterial culture was started by inoculating 10 ml of Luria-Bertani broth (LB) with one to two well isolated colonies of Pseudomonas aeruginosa (Dr. G. O'Toole, Dept. Microbiol. Dartmouth Medical School, Hanover, N.H.) and incubating the culture overnight at 37° C. with agitation at 125 rpm.
# One day prior to the test a 50 ml LB culture was inoculated with 50 μl of the overnight culture and grown overnight at 37° C. with agitation at 125 rpm. The optical density (at 650 nm) of the overnight culture was measured using a Spectramax spectrophotometer (molecular Devices, Sunnyvale, Calif.). The culture was centrifuged at 4,500×g for 10 minutes at 4° C. to pellet the bacteria. The bacteria were resuspended in phosphate buffered saline (PBS) to give a concentration of 2×10^10 cells/ml (1 OD equals 1×10^9 cells/ml).
# A 20% (w/v) stock of inulin (Jerusalem Artichoke, Sigma Chemical St Louis Mo.) was prepared by mixing 0.20 g of inulin with a sufficient amount of PBS to yield a final volume of 1 ml. […]
# For the applied dose, 50 μl of 20% inulin in PBS, 4% Tween 20 alone, or PBS alone was applied to the EpiDerm™ tissue followed immediately by 50 μl of either the bacteria cells or PBS. […] After three hours, the tissue was analyzed for the number of adhered bacteria.
# To measure adherence of P. aeruginosa to the EPIDERM™ tissue, the liquid remaining on the tissue was first transferred to a fresh microcentrifuge tube. […] Fluorescence was monitored in a microfluorometer at an excitation of 485 nm and an emission of 510 nm.
# Results are expressed as percent bacteria adhered to the tissue relative to the PBS control. […] The percent adherence was calculated by the formula: (RFU in bound fraction of the inulin or Tween 20 sample−average background RFU)/(average of the RFU in the bound fraction of the cells alone treatment−average background RFU)*100. […]
substance,measurement,setting,value
Tween 20 [reference compound],% Attached as Compared to PBS Treatment,Pseudomonas aeruginosa [1]; treatment concentration 2%,10%
same,% Attached as Compared to PBS Treatment,[2]; treatment concentration 2%,50%
same,% Attached as Compared to PBS Treatment,Pseudomonas aeruginosa [3]; treatment concentration 2%,70%
same,% Attached as Compared to PBS Treatment,Pseudomonas aeruginosa [4]; treatment concentration 2%,73%
inulin [Chicory root],% Attached as Compared to PBS Treatment,[2]; treatment concentration 1.25%,92%
same,% Attached as Compared to PBS Treatment,[2]; treatment concentration 2.5%,60%
same,% Attached as Compared to PBS Treatment,[2]; treatment concentration 5%,45%
same,% Attached as Compared to PBS Treatment,[2]; treatment concentration 10%,17%
inulin [Dahlia tuber],% Attached as Compared to PBS Treatment,[2]; treatment concentration 1.25%,86%
same,% Attached as Compared to PBS Treatment,[2]; treatment concentration 2.5%,59%
same,% Attached as Compared to PBS Treatment,[2]; treatment concentration 5%,48%
same,% Attached as Compared to PBS Treatment,[2]; treatment concentration 10%,29%
inulin [Jerusalem Artichoke],effect on attachment of P. aeruginosa to VITRO-SKIN substrate (in words),Pseudomonas aeruginosa [1],inhibited attachment
same,% Attached as Compared to PBS Treatment,Pseudomonas aeruginosa [1]; treatment concentration 10%,53%
same,effect on attachment of P. aeruginosa to porcine skin (in words),Pseudomonas aeruginosa [3],also occurred on porcine skin
same,% Attached as Compared to PBS Treatment,Pseudomonas aeruginosa [3]; treatment concentration 10%,25%
same,effect on attachment of P. aeruginosa to EpiDerm (in words),Pseudomonas aeruginosa [4],inhibited attachment
same,% Attached as Compared to PBS Treatment,Pseudomonas aeruginosa [4]; treatment concentration 10%,57%
